The text below walks through data of publication PMC11021962, “Coupling and regulation mechanisms of the flavin-dependent halogenase PyrH observed by infrared difference spectroscopy” (The Journal of Biological Chemistry, 2024).

Experiment [1] has as its target T1, PyrH (Streptomyces rugosporus, UniProt A4D0H5). Kind of experiment: UV-vis spectroscopy after reconstitution and washing; light-induced FTIR difference spectroscopy. It counts as binding. The note with it: pH 8.3, 20 mM NaCl, 60 mM potassium phosphate.
Experiment [2] addresses T1, PyrH. Kind of experiment: light-induced FTIR difference spectroscopy. The note with it: 3 mM compound, FAD-bound enzyme, 20 mM chloride, 35 mM DTT, pH 8.3, 10 °C, anaerobic, 450 nm photoreduction; substrate-binding site, allosterically coupled to FAD site.

SMILES strings stand for the structures.

T1 sequence (A4D0H5 whole entry): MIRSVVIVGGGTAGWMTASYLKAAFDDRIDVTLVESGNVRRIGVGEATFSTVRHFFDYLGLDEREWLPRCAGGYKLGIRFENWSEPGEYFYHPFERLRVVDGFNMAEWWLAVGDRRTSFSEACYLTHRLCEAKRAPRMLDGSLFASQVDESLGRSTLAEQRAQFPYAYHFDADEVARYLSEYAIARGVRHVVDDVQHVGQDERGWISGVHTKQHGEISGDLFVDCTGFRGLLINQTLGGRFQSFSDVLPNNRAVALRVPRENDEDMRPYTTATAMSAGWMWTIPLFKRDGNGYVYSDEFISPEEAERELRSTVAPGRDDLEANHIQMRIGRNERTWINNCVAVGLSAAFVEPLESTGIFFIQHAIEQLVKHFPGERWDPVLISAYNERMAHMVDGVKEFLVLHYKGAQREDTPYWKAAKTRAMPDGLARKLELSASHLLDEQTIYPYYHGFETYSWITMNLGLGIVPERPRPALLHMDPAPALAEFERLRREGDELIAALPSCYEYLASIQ

Take `Cc1cc2nc3c(=O)[nH]c(=O)nc-3n(C[C@H](O)[C@H](O)[C@H](O)COP(=O)(O)OP(=O)(O)OC[C@H]3O[C@@H](n4cnc5c(N)ncnc54)[C@H](O)[C@@H]3O)c2cc1C` [FAD]: the “UV-vis spectroscopy after reconstitution and washing; light-induced FTIR differe” value on PyrH [1] was “FAD remained bound to PyrH in all three samples after extensive washing steps”.
With `N[C@@H](Cc1c[nH]c2ccc(Cl)cc12)C(=O)O` [5-chlorotryptophan], the “light-induced FTIR difference spectroscopy” value at PyrH [2] is given as “The binding of 5-chlorotryptophan also leads to a reduction of secondary structure changes”.
Take `N[C@@H](Cc1c[nH]c2ccccc12)C(=O)O` [tryptophan]: the “light-induced FTIR difference spectroscopy” value on PyrH [2] is “Tryptophan binding causes a change in the environment of FAD”.
